The target of assay [1] is T1, Carbonic anhydrase 2 (Homo sapiens, UniProt P00918). The assay is described as follows: Inhibition of human CA2 pre-incubated for 15 mins to 24 hrs measured after 6 hrs by phenol red-based stopped-flow CO2 hydrase assay.
For assay [2], the target named is T2, Carbonic anhydrase 9 (Homo sapiens, UniProt Q16790). The assay is described as follows: Inhibition of human CA9 pre-incubated for 15 mins to 24 hrs measured after 6 hrs by phenol red-based stopped-flow CO2 hydrase assay.
Assay [3] has as its target T3, Carbonic anhydrase 1 (Homo sapiens, UniProt P00915). The assay is described as follows: Inhibition of human CA1 pre-incubated for 15 mins to 24 hrs measured after 6 hrs by phenol red-based stopped-flow CO2 hydrase assay.
In assay [4] the target is T3, Carbonic anhydrase 1. As to the kind of experiment: Inhibition of human CA1 pre-incubated for 15 mins to 24 hrs measured after 15 mins by phenol red-based stopped-flow CO2 hydrase assay.
The target in assay [5] is T1, Carbonic anhydrase 2. The assay is described as follows: Inhibition of human CA2 pre-incubated for 15 mins to 24 hrs measured after 15 mins by phenol red-based stopped-flow CO2 hydrase assay.
Assay [6] deals with T2, Carbonic anhydrase 9. As to the kind of experiment: Inhibition of human CA9 pre-incubated for 15 mins to 24 hrs measured after 15 mins by phenol red-based stopped-flow CO2 hydrase assay.

11 molecules from ChEMBL document CHEMBL1932973, “5- and 6-membered (thio)lactones are prodrug type carbonic anhydrase inhibitors” (Bioorg Med Chem Lett, 2012) can be followed below.

By pKi is commonly meant the Ki on a negative log10 scale, so that one unit is a factor of ten. Higher therefore signals a low Ki.

pKi: −log10 of the molar value.

T3 sequence (P00915 whole entry): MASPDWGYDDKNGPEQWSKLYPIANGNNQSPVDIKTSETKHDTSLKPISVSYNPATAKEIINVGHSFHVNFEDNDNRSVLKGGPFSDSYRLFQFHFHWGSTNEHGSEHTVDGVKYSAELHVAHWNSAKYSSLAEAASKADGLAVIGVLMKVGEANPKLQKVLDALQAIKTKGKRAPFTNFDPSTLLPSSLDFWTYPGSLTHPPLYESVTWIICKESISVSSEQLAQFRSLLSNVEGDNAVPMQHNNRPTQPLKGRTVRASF

On Carbonic anhydrase 2 [1], `Cc1cc(C)oc(=O)c1` showed a pKi below 4.00. With `COC1=CC(=O)OC1`, the pKi on Carbonic anhydrase 2 [1] is below 4.00; at Carbonic anhydrase 9 [2], 5.47. As for `O=C1C=CCCO1`, the pKi was below 4.00 on Carbonic anhydrase 2 [1] and 5.87 at Carbonic anhydrase 9 [2].

As for `O=C1CCCCO1`, the pKi on Carbonic anhydrase 2 [1] is below 4.00; at Carbonic anhydrase 9 [2], 5.44. In the same order, the values of `CC1CCC(=O)O1` (stereo unspecified) are below 4.00 and 6.04. Regarding `O=C1C=CCO1` [FURAN-2(5H)-ONE], the pKi at Carbonic anhydrase 2 [1] is below 4.00. Take `O=c1cccco1`: the figures for the pKi on Carbonic anhydrase 2 [1] and at Carbonic anhydrase 9 [2] were below 4.00 and 5.80, respectively. With `O=C(O)/C=C/c1ccccc1O` [O-COUMARIC ACID], the figures for the pKi at Carbonic anhydrase 9 [2] and at Carbonic anhydrase 1 [3] were below 4.00 and 5.47, respectively.

Regarding `Cc1cc(C)oc(=S)c1`, the pKi is below 4.00 at Carbonic anhydrase 2 [1] and 5.02 on Carbonic anhydrase 9 [2]. Take `S=c1cccco1`: the pKi at Carbonic anhydrase 2 [1] was below 4.00; on Carbonic anhydrase 9 [2] it was 5.13. In the case of `O=C(O)/C=C/CCO`, the pKi is 5.07 at Carbonic anhydrase 1 [4], below 4.00 at Carbonic anhydrase 2 [5] and 5.94 on Carbonic anhydrase 9 [6].
